Tests used:
[1] = system: cecal ligation and perforation (CLP) model; experiment: CLP model of sepsis: survival and behavior; type: in vivo, C57BL/6 mice; details: 12 mg/kg i.p. daily Day 0 to Day 2
Protocol: Cecal ligation and perforation was performed on C57BL/6 mice about 10 to 20 weeks of age. Mice were administered either ZLN-005 at 12 mg/kg (i.p.) or vehicle (DMSO) at the time of cecal ligation and perforation, 24 hours later, and 48 hours later (FIG. 1A).
C57BL/6 mice were purchased from Shimizu Laboratory Supplies Co., Ltd. (Kyoto, Japan). Mice were housed in specific-pathogen-free conditions with free access to food and water. Mice were anesthetized by inhalation of isoflurane (099-06571, FUJIFILM Wako Pure Chemical Corporation, Tokyo, Japan). A midline incision was made, followed by externalization, and the cecum was then ligated at half the distance between the distal pole and the base of the cecum and punctured with a 21-gauge needle (NN-2116R, Terumo Corporation, Tokyo, Japan). Next, a small amount of fecal mass from the punctured cecum was gently squeezed out to ensure patency of punctures, the cecum was relocated, and 6/0 Ethicon PROLENE Suture (Ethicon, Inc., Raritan, NJ, USA) was used to close the peritoneum and skin. Sham-operated mice underwent only incision and cecum exteriorization. […]
The results are presented as the means±standard deviations. The statistical significance of differences among groups was evaluated using parametric unpaired t tests for bar graphs. […]

CLP sepsis model = experiment: Echocardiographic measurement at 24 hours post-CLP; type: in vivo, mice; details: 24 hours after CLP
Protocol: Chest hair was removed with cream one day before echocardiography was performed using VisualSonics Vevo®@2100 equipped with an 18- to 38-MHz probe (VisualSonics, Toronto, ON, Canada). Mice were anesthetized by inhalation of isoflurane at 24 hours post-CLP. The left ventricle was assessed in the parasternal short-axis view. Left ventricular end-systole or end-diastole was defined as the period when the left ventricular lumen was shortest or most dilated, respectively. Diastolic left ventricular (LV) internal diameters, systolic LV internal diameters, diastolic LV anterior wall, and diastolic LV posterior wall were measured from the LV M-mode tracing at the papillary muscle level. LV wall thickness was calculated as the average of anterior and posterior wall thicknesses.

naïve THP-1 = experiment: Expression over time in naïve THP-1; type: cell-based, human
THP-1 cells = experiment: Autophagy flux (LC3 conversion, Western blotting) in LPS model of THP-1; type: cell-based, human; details: 6 hours LPS followed by 2 or 6 hours autophagy inhibitor (50 nM bafilomycin A1 or 30 nM chloroquine)
Protocol: Cells were incubated at 37° C. in a humidified 5% CO2 incubator. […] After 48 hours, the supernatant of the medium was carefully removed to avoid detaching the cells attached to the bottom of the plate and replaced with new medium containing 1 μM ZLN-005 or DMSO (0.1%) as a control. […] For PI3K inhibition, the cells were seeded in the plate and added 200 nM Wortmannin (AG-CN2-0023-M001, Adipogen Life Sciences Inc.).
Protein levels were quantified using ImageJ™.

Compound	mice alive at 72 hours ([1]; 72 hours post-CLP)	mice alive after 6 days ([1]; 6 days post-CLP)	ejection fraction (CLP sepsis model)	increase in expression at the protein level (naïve THP-1; naïve THP-1, 36 hours (data not shown))	increase in expression at the mRNA level (naïve THP-1; naïve THP-1, 48 hours (data not shown))	LC3-II and LC3-II/I ratios (THP-1 cells)
CC(C)(C)c1ccc(-c2nc3ccccc3[nH]2)cc1 [ZLN-005, 2-(4-tert-butylphenyl)-1H-benzimidazole]	40%	30%	~50%	2 fold	2 fold	
CO/C1=C\C(C)=C\[C@@H](C)[C@@H](O)[C@@H](C)C/C(C)=C/C=C/[C@H](OC)[C@@H]([C@@H](C)[C@@H](O)[C@H](C)[C@@]2(O)C[C@@H](O)[C@H](C)[C@@H](C(C)C)O2)OC1=O [bafilomycin A1]						increasing with significant differences

— patent US20260216142A1, “USES OF ZLN-005 AND RELATED COMPOUNDS” (priority 2022, published 2026)
